Laboratory results from patent US10385022B2, “3-amino-pyridines as GPBAR1 agonists” (HOFFMANN-LA ROCHE INC., priority 2011, dated 2019).

Target: human GPBAR1 receptor (Homo sapiens (Human), UniProt Q8TDU6)
Test: functional cAMP assay in CHO-dhfr(minus) cells expressing human GPBAR1 receptors
Assay type: cell-based
Details: CHO-dhfr(minus) cells expressing human GPBAR1, 30 min at 30° C.
Outline: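 CHO-dhfr- cells were transfected with human GPBAR1, and a clone was chosen by cAMP response to lithocholic acid. EC50 values come from the cAMP read-out; specificity was checked in non-transfected CHO cells.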

Chain of human GPBAR1 receptor (Q8TDU6 whole entry): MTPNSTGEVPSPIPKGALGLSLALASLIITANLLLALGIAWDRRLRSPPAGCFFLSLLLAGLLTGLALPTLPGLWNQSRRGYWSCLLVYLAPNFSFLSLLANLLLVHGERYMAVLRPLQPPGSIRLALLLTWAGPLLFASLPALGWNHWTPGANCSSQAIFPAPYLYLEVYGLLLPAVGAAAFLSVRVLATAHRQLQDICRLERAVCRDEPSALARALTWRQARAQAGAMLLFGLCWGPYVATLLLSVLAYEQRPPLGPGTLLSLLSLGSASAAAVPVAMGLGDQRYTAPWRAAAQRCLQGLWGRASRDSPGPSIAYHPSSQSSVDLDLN

EC50	SMILES
1230 nM	Cc1ccccc1-c1ccncc1N(C)C(=O)c1cc(F)cc(F)c1 [Example 9, 3,5-Difluoro-N-methyl-N-(4-o-tolyl-pyridin-3-yl)-benzamide]
1880 nM	Cc1cc(-c2ccccc2OCC2COC2)c(N(C)C(=O)c2cc(C(F)(F)F)cc(S(C)(=O)=O)c2)cn1 [Example 321, 3-Methanesulfonyl-N-methyl-N-{6-methyl-4-[2-(oxetan-3-ylmethoxy)-phenyl]-pyridin-3-yl}-5-trifluoromethyl-benzamide]
485 nM	Cc1cccc(-c2ccncc2N(C)C(=O)c2cc(C(F)(F)F)cc(C(F)(F)F)c2)c1C [Example 105, N-[4-(2,3-Dimethyl-phenyl)-pyridin-3-yl]-N-methyl-3,5-bis-trifluoromethyl-benzamide]
247 nM	Cc1ccccc1-c1ccncc1N(C)C(=O)c1cc(C(F)(F)F)ccc1F [Example 4, 2-Fluoro-N-methyl-N-(4-o-tolyl-pyridin-3-yl)-5-trifluoromethyl-benzamide]
146 nM	Cc1cc(F)ccc1-c1ccncc1N(C)C(=O)c1cc(Cl)cc(Cl)c1 [Example 24, 3,5-Dichloro-N-[4-(4-fluoro-2-methyl-phenyl)-pyridin-3-yl]-N-methyl-benzamide]
3130 nM	Cc1ccccc1-c1ccncc1N(C)C(=O)c1cc(NCCO)cc(C(F)(F)F)c1 [Example 271, 3-(2-Hydroxy-ethylamino)-N-methyl-N-(4-o-tolyl-pyridin-3-yl)-5-trifluoromethyl-benzamide]
60 nM	CN(C(=O)c1cc(C(F)(F)F)cc(C(F)(F)F)c1)c1cnccc1-c1ccc(F)cc1OCC#N [Example 51, N-[4-(2-Cyanomethoxy-4-fluoro-phenyl)-pyridin-3-yl]-N-methyl-3,5-bis-trifluoromethyl-benzamide]
2010 nM	Cc1ccccc1-c1cc(-c2ccc[nH]2)ncc1N(C)C(=O)c1cc(C(F)(F)F)cc(C(F)(F)F)c1 [Example 113, N-Methyl-N-[6-(1H-pyrrol-2-yl)-4-o-tolyl-pyridin-3-yl]-3,5-bis-trifluoromethyl-benzamide]
727 nM	Cc1ccccc1-c1ccncc1N(C)C(=O)c1cccc(C(F)(F)F)c1 [Example 2, N-Methyl-N-(4-o-tolyl-pyridin-3-yl)-3-trifluoromethyl-benzamide]
452 nM	COC(=O)c1cc(C(=O)N(C)c2cnccc2-c2ccccc2Cl)cc(C(F)(F)F)c1 [Example 75, N-[4-(2-Chloro-phenyl)-pyridin-3-yl]-N-methyl-5-trifluoromethyl-isophthalamic acid methyl ester]
485 nM	CN(C(=O)c1cc(C(F)(F)F)cc(C(F)(F)F)c1)c1cnccc1-c1ccncc1F [Example 70, N-(3′-Fluoro-[4,4′]bipyridinyl-3-yl)-N-methyl-3,5-bis-trifluoromethyl-benzamide]
298 nM	Cc1ccccc1-c1ccncc1N(C)C(=O)c1ccc(C(F)(F)F)c(C(F)(F)F)c1 [Example 101, N-Methyl-N-(4-o-tolyl-pyridin-3-yl)-3,4-bis-trifluoromethyl-benzamide]
247 nM	COc1cc(F)ccc1-c1ccncc1N(CC(F)(F)F)C(=O)c1cc(C(F)(F)F)cc(S(C)(=O)=O)c1 [Example 136, N-[4-(4-Fluoro-2-methoxy-phenyl)-pyridin-3-yl]-3-methanesulfonyl-N-(2,2,2-trifluoro-ethyl)-5-trifluoromethyl-benzamide]
502 nM	Cc1cnccc1-c1ccncc1N(C)C(=O)c1cc(C(F)(F)F)cc(C(F)(F)F)c1 [Example 34, N-Methyl-N-(3′-methyl-[4,4′]bipyridinyl-3-yl)-3,5-bis-trifluoromethyl-benzamide]
20 nM	COc1cc(F)ccc1-c1ccncc1N(C)C(=O)c1cc(C(F)(F)F)cc(S(=O)(=O)N2CCOCC2)c1 [Example 256, N-[4-(4-Fluoro-2-methoxy-phenyl)-pyridin-3-yl]-N-methyl-3-(morpholine-4-sulfonyl)-5-trifluoromethyl-benzamide]
13 nM	COC(=O)CN(C(=O)c1cc(C(F)(F)F)nc(C(F)(F)F)c1)c1cnccc1-c1c(F)cccc1OC [Example 195, Methyl 2-(N-(4-(2-fluoro-6-methoxyphenyl)pyridin-3-yl)-2,6-bis(trifluoromethyl)isonicotinamido)acetate]
54 nM	CCC(=O)CN(C(=O)c1cc(C(F)(F)F)nc(C(F)(F)F)c1)c1cnccc1-c1ccc(F)cc1OC [Example 203, N-[4-(4-Fluoro-2-methoxy-phenyl)-pyridin-3-yl]-N-(2-oxo-butyl)-2,6-bis-trifluoromethyl-isonicotinamide]
184 nM	Cc1ccccc1-c1cc(N)ncc1N(C)C(=O)c1cc(C(F)(F)F)cc(C(F)(F)F)c1 [Example 16]
